The record followed here is ChEMBL document CHEMBL1201862, “PubChem BioAssay data set” (2004).

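Values below derive from 48-hour exposures of cells grown in 96-well plates, with endpoints linearly interpolated between the two concentrations bracketing the appropriate inhibition level. GI50 = concentration required for 50% inhibition of growth.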 The source made the active and inactive calls. Cut-off read from the data, not from the text of the source: active = GI50 up to about 1.1 µM and inactive = higher. Where a SMILES comes first, the peptide text is derived from it. [ ]: non-standard residue; d: D form. The star is where a group is joined. NMeAc5c = CNC1(C(=O)O)CCCC1; Boc = CC(C)(C)OC(=O)*; OBn = c1ccc(CO*)cc1

Some test systems named below: MDA-MB-435; SNB-19; HT-29; SW-620; NCI-H226; KM12; SK-OV-3; HCT-15; EKVX; MOLT-4; A549; CAKI-1; HOP-92; Malme-3M; SF-295; HOP-62; SK-MEL-28; NCI-H460.
What all share (test): growth of human tumour cells (NCI), 48 h

Consider `N#Cc1c(C#N)c(-c2ccccc2)n(/N=C\c2ccccc2)c1N`, for which the GI50 was 45.4 µM (inactive) with MDA-MB-435; 30.8 µM (inactive) in the experiment with SNB-19; 26.1 µM (inactive) in the experiment on HT-29; 62.4 µM (inactive) in the experiment with SW-620; 20.8 µM (inactive) in the experiment with NCI-H226; 26.9 µM (inactive) in the experiment with KM12. For the same compound, the GI50 was 14.1 µM (inactive) in the experiment with SK-OV-3; 30.6 µM in the experiment on HCT-15; 13.6 µM (inactive) in the experiment on EKVX; 5.27 µM (inactive) with MOLT-4; 13 µM (inactive) with A549; 18.3 µM (inactive) in the experiment with CAKI-1. Also, the GI50 in the experiment on HOP-92 is 20.8 µM (inactive); in the experiment with Malme-3M, 29.9 µM (inactive); in the experiment on SF-295 it was 7.4 µM (inactive); in the experiment with HOP-62, 31.3 µM (inactive).
In the case of `Oc1ccc(/C=C/c2cccc(/C=C/c3ccc(O)c(O)c3)n2)cc1O`, the GI50 is 10.7 µM (inactive) with MDA-MB-435; 6.04 µM (inactive) in the experiment with SNB-19; 14.2 µM (inactive) in the experiment with SK-MEL-28; 5.57 µM (inactive) with NCI-H460; 10.8 µM (inactive) with HT-29; 7.05 µM (inactive) in the experiment on SW-620. Besides, the GI50 in the experiment on KM12 was 8.91 µM (inactive); with SK-OV-3 it was 16.1 µM (inactive); in the experiment with HCT-15 it was 22.7 µM; in the experiment on EKVX, 11.7 µM (inactive); in the experiment with MOLT-4, 3.27 µM (inactive); with A549 it was 5.25 µM (inactive). The GI50 in the experiment with CAKI-1 is 13.8 µM (inactive); in the experiment on HOP-92 it was 11.2 µM (inactive); in the experiment with SF-295, 18.6 µM (inactive); in the experiment with HOP-62 it was 22.2 µM (inactive).
For the compound `COc1ccc(-n2c(N)c(C#N)c(C#N)c2-c2ccccc2)cc1`, the GI50 was > 100 µM (inactive) in the experiment on MDA-MB-435; 29.6 µM (inactive) in the experiment with SNB-19; > 100 µM (inactive) in the experiment with HT-29; > 100 µM (inactive) in the experiment with SW-620; 13.8 µM (inactive) in the experiment with NCI-H226; > 100 µM (inactive) in the experiment with KM12. Further, the GI50 was > 100 µM (inactive) in the experiment on SK-OV-3; above 100 µM in the experiment with HCT-15; > 100 µM (inactive) with EKVX; > 100 µM (inactive) in the experiment on MOLT-4; > 100 µM (inactive) in the experiment with A549; > 100 µM (inactive) with CAKI-1. Also, the GI50 in the experiment with HOP-92 is 10.1 µM (inactive); in the experiment with Malme-3M, > 100 µM (inactive); in the experiment on SF-295, 31.8 µM (inactive); in the experiment on HOP-62, 87.7 µM (inactive).
In the case of `CC(C)(Oc1ccc(C2C[C@H]2Cl)cc1)C(=O)O` (some centres not stated), the GI50 in the experiment with MDA-MB-435, in the experiment on SNB-19, with SK-MEL-28, with NCI-H460, in the experiment with SW-620 and in the experiment with KM12 was > 100 µM (inactive) throughout. In addition, the GI50 in the experiment on SK-OV-3 was > 100 µM (inactive); with HCT-15 it was above 100 µM; in the experiment on EKVX, > 100 µM (inactive); with MOLT-4, > 100 µM (inactive); in the experiment on A549, > 100 µM (inactive); with CAKI-1, > 100 µM (inactive). Moreover, the GI50 with HOP-92, with SF-295 and in the experiment with HOP-62 was > 100 µM (inactive) in each case.
Regarding `Cc1c2ccccc2c(CSC(=N)N)c2ccccc12`, the GI50 is 0.181 µM (active) in the experiment with MDA-MB-435; 0.228 µM (active) in the experiment on SNB-19; 0.27 µM (active) in the experiment on SK-MEL-28; 0.074 µM (active) in the experiment with NCI-H460; 0.163 µM (active) in the experiment on HT-29; 0.121 µM (active) with SW-620. Moreover, the GI50 with NCI-H226 was 0.247 µM (active); in the experiment with KM12, 0.218 µM (active); with SK-OV-3 it was 0.344 µM (active); in the experiment on HCT-15 it was 0.269 µM; in the experiment with EKVX, 0.304 µM (active); in the experiment with MOLT-4, 0.0284 µM (active). In addition, the GI50 was 0.216 µM (active) with A549; 0.29 µM (active) in the experiment with HOP-92; 0.149 µM (active) in the experiment with Malme-3M; 0.271 µM (active) in the experiment on SF-295; 0.241 µM (active) in the experiment with HOP-62.
Consider `CCCCNC(=O)Cn1c2ccc(Br)cc2c2nc3ccccc3nc21`, for which the GI50 in the experiment on MDA-MB-435 was > 100 µM (inactive); in the experiment with SNB-19 it was > 100 µM (inactive); in the experiment on SK-MEL-28, > 100 µM (inactive); in the experiment with HT-29, > 100 µM (inactive); in the experiment with SW-620 it was > 100 µM (inactive); in the experiment on NCI-H226, 12.3 µM (inactive). The GI50 with KM12 was > 100 µM (inactive); in the experiment on MOLT-4, > 100 µM (inactive); with A549, > 100 µM (inactive); with CAKI-1 it was 57.3 µM (inactive); in the experiment on HOP-92 it was > 100 µM (inactive); in the experiment on SF-295, > 100 µM (inactive). Moreover, in the experiment with HOP-62, the GI50 is 58.1 µM (inactive).
Turning to `C=CC1(c2ccc(Br)cc2)OCCCO1`, the GI50 with MDA-MB-435, with SNB-19, in the experiment with SK-MEL-28, in the experiment with NCI-H460, with HT-29 and with SW-620 was > 100 µM (inactive) in each case. Besides, the GI50 in the experiment on NCI-H226 is > 100 µM (inactive); in the experiment with KM12, > 100 µM (inactive); with SK-OV-3, > 100 µM (inactive); with HCT-15 it was above 100 µM; with EKVX, > 100 µM (inactive); with MOLT-4, > 100 µM (inactive). Also, the GI50 with A549, with HOP-92, with Malme-3M, in the experiment on SF-295 and with HOP-62 was > 100 µM (inactive) each time.
Consider `CN(C(=O)C(Cc1ccccc1)NC(=O)OC(C)(C)C)C1(C(=O)NC(Cc2ccccc2)C(=O)OCc2ccccc2)CCCC1` (stereo not drawn) (Boc-Phe-[NMeAc5c]-Phe-OBn; configuration not given here), for which the GI50 in the experiment on MDA-MB-435 is 37.3 µM (inactive); in the experiment with SNB-19, 53.5 µM (inactive); in the experiment with SK-MEL-28 it was 58.1 µM (inactive); in the experiment on NCI-H460 it was 23.6 µM (inactive); with HT-29, 22.3 µM (inactive); in the experiment with SW-620, 39.7 µM (inactive). In addition, the GI50 with NCI-H226 is 40.6 µM (inactive); in the experiment on KM12 it was 36.6 µM (inactive); in the experiment with SK-OV-3, 0.653 µM (active); with HCT-15 it was 28.7 µM; in the experiment with EKVX, 59.6 µM (inactive); in the experiment on MOLT-4, 26.9 µM (inactive). The GI50 in the experiment on A549 is 33.3 µM (inactive); in the experiment with HOP-92, 53.7 µM (inactive); in the experiment on Malme-3M, > 100 µM (inactive); in the experiment on SF-295, 42.6 µM (inactive); with HOP-62, 38.5 µM (inactive).
Turning to `CC(C)(C)OC(=O)N1C(=O)C2CCCC21` (configuration not stated), the GI50 with MDA-MB-435, in the experiment on SNB-19, in the experiment on SK-MEL-28, in the experiment on NCI-H460, in the experiment on HT-29 and in the experiment with SW-620 was > 100 µM (inactive) throughout. Further, the GI50 in the experiment with NCI-H226 is > 100 µM (inactive); in the experiment on KM12 it was > 100 µM (inactive); in the experiment with SK-OV-3, > 100 µM (inactive); in the experiment on HCT-15, above 100 µM; in the experiment on MOLT-4 it was > 100 µM (inactive); in the experiment on A549 it was > 100 µM (inactive). Also, the GI50 in the experiment on HOP-92 and in the experiment on HOP-62 was > 100 µM (inactive) each time.
Consider `Nc1nc(-c2ccccc2)nc2oc(-c3cccs3)nc12`, for which the GI50 in the experiment with MDA-MB-435, in the experiment on SNB-19, in the experiment with SK-MEL-28, in the experiment on NCI-H460, with HT-29 and in the experiment on SW-620 was > 100 µM (inactive) each time. Also, the GI50 in the experiment on NCI-H226 was > 100 µM (inactive); in the experiment on KM12 it was > 100 µM (inactive); with HCT-15 it was above 100 µM; in the experiment with EKVX it was > 100 µM (inactive); in the experiment on MOLT-4 it was > 100 µM (inactive); with A549 it was > 100 µM (inactive). The GI50 was > 10 µM (inactive) in the experiment with CAKI-1, > 100 µM (inactive) in the experiment on HOP-92, > 100 µM (inactive) with SF-295 and > 100 µM (inactive) in the experiment with HOP-62.
For `COc1cc(C2(O)c3ccccc3C3=NCCN32)cc(OC)c1OC` (configuration not stated), the GI50 in the experiment with MDA-MB-435 was > 100 µM (inactive); with SNB-19, 79.4 µM (inactive); in the experiment on SK-MEL-28 it was > 100 µM (inactive); with NCI-H460, > 100 µM (inactive); in the experiment with HT-29, > 100 µM (inactive); in the experiment with SW-620, > 100 µM (inactive). Moreover, the GI50 in the experiment on NCI-H226 was 73.3 µM (inactive); in the experiment on KM12, > 100 µM (inactive); in the experiment on SK-OV-3 it was > 100 µM (inactive); in the experiment on HCT-15, above 100 µM; with MOLT-4, 30.3 µM (inactive); with A549, > 100 µM (inactive). The GI50 with CAKI-1, with HOP-92, in the experiment with SF-295 and in the experiment with HOP-62 was > 100 µM (inactive) throughout.
For `Cc1ccsc1/C=N/NC1=NCCN1`, the GI50 in the experiment on MDA-MB-435, with SNB-19, in the experiment on SK-MEL-28, in the experiment with HT-29, in the experiment with SW-620 and in the experiment with NCI-H226 was > 100 µM (inactive) each time. The GI50 in the experiment on KM12 is > 100 µM (inactive); in the experiment with SK-OV-3, > 100 µM (inactive); in the experiment with HCT-15 it was above 100 µM; in the experiment with EKVX, > 100 µM (inactive); in the experiment on MOLT-4 it was > 100 µM (inactive); in the experiment on A549, > 100 µM (inactive). Moreover, the GI50 with CAKI-1 was > 100 µM (inactive); with HOP-92, > 100 µM (inactive); in the experiment with Malme-3M, > 100 µM (inactive); in the experiment with SF-295 it was 55.3 µM (inactive); in the experiment on HOP-62 it was > 100 µM (inactive).
As for `O=C1CC(c2ccccc2Cl)C2(C(=O)NC(=O)NC2=O)C(c2ccccc2Cl)C1` (configuration not stated), the GI50 with MDA-MB-435 is 52.6 µM (inactive); in the experiment on SNB-19 it was > 100 µM (inactive); with SK-MEL-28 it was > 100 µM (inactive); in the experiment with NCI-H460, 98.4 µM (inactive); in the experiment on HT-29, > 100 µM (inactive); in the experiment on SW-620, > 100 µM (inactive). Besides, the GI50 was 65.8 µM (inactive) with NCI-H226; > 100 µM (inactive) in the experiment with KM12; 0.356 µM (active) with SK-OV-3; above 100 µM in the experiment on HCT-15; 38.6 µM (inactive) in the experiment with EKVX; > 100 µM (inactive) in the experiment on MOLT-4. Further, the GI50 in the experiment on A549 is 85.3 µM (inactive); in the experiment on HOP-92, > 100 µM (inactive); in the experiment on Malme-3M it was 5.05 µM (inactive); with SF-295 it was > 100 µM (inactive); with HOP-62, > 100 µM (inactive).
